Tests used:
A375 cells = assay: cells; details: Homo sapiens, A-375, 72 h, read-out: A375 XTT IC50 uM
Description: The cell viability assay in A375 cells (A375 ICW IC50 in Table 2) is set up in a 96-well plate format using XTT. XTT is a yellow tetrazolium salt that is cleaved to an orange formazan dye by the mitochondria of metabolically active cells. The procedure allows for rapid determination in a microtitre plate, to give reproducible and sensitive results.
A375 cells are grown in DMEM media containing 10% FBS and 1 mM sodium pyruvate. Cells are trypsinized and seeded at 1000 cells/well. After allowing the cells to adhere overnight, compound is added to the wells at the following final concentrations: 10, 3, 1, 0.3, 0.1, 0.03, 0.01, 0.001, and 0.0001 μM. The assay is set up in triplicates for each concentration. DMSO concentrations are kept at 0.5% /well. Three days after compound addition, the XTT assay is performed. Wells are washed once with PBS. 100 μL of DMEM media without phenol red or FBS is added to each well. […] 50 μL of the working solution of XTT is added to each well. […] The absorbance from wells with media and XTT alone, but without cells is considered the blank and subtracted from readings from all wells.
Percentage viability is calculated considering the blank subtracted value from wells treated with DMSO alone as 100% viable. IC50 values are calculated using Graphpad Prism, using non-linear regression curve fit for sigmoidal dose response (variable slope).

[1] = system: phospho-ERK1/2 in A375 cells; assay: cells; details: Homo sapiens, A-375, 3 h, read-out: A375 ICW IC50
Description: Human melanoma A375 cells were seeded at 50,000 cells per well in 100 μl growth medium in Costar 96 well black clear bottom plates and placed at 37° C./5% CO2 over night. Test compounds were diluted in DMSO to generate a concentration curve. A 5 mM stock was used for the highest concentration at 500 times; to yield a final concentration of 10 μM with 3-fold dilutions down to 0.0001 μM. 1 μl of diluted compound was added to 500 μl cell culture media and mixed well. Media was removed from cells and 200 μl of media containing compound was added. Cells were treated for 3 hrs with compound at 37° C., 5% CO2.
After the compound incubation, cells were washed once with PBS (Mg^++,Ca^++) and fixed in 4% paraformaldehyde/PBS for 1 hr at room temperature. Following fixation, cells were washed three times with PBS/0.1% TritonX-100(PBST), and then blocked with 5% skimmed milk/PBST, for 1-2 hr. 50 μL per well primary antibody was added (rabbit-anti-phospho-ERK1/2) at 1:500 in 5% skimmed milk/PBST and incubated overnight at 4° C. Cells were washed four times with 100 μl DELFIA wash buffer and 50 μL per well secondary antibody was added (DELFIA-EU-N1-labeled anti-rabbit antibody) at 1:3000 in DELFIA assay buffer and incubated for 2 hr at room temperature in the dark (covered). Cells were washed 4× with 100 μl DELFIA wash buffer. 50 μL per well Wallac-DELFIA enhancement solution was added. […]

[2] = molecular target: activated MAP kinase 2/ERK2 (Homo sapiens (Human), UniProt P28482); assay: biochemical
[3] = molecular target: recombinant human activated BRAF (V599E) kinase (Homo sapiens (Human), UniProt P15056, V600E); assay: biochemical
recombinant human activated BRAF (V599E) kinase, sequence (P15056 417-766 V600E limits assumed): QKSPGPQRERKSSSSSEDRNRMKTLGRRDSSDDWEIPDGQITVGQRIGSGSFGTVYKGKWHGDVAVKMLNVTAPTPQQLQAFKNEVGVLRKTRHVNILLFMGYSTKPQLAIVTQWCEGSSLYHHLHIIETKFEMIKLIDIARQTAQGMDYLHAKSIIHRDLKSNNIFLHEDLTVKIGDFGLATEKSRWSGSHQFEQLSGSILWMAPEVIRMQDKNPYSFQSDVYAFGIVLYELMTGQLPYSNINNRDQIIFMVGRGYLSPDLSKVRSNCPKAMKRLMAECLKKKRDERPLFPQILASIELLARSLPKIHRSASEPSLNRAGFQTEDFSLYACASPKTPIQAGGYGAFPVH

activated MAP kinase 2/ERK2, sequence (P28482 whole entry, looked up): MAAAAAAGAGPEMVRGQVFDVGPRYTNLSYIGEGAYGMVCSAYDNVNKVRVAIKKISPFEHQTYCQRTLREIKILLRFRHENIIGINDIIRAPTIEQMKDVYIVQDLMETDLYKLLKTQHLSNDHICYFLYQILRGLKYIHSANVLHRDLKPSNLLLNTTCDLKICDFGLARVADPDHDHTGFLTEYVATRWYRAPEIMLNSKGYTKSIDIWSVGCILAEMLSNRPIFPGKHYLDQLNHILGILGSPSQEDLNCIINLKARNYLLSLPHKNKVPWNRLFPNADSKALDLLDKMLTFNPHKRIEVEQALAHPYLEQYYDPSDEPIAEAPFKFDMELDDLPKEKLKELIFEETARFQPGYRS

IC50 (A375 cells): 0.003 µM | IC50 [1]: 3.9 nM | inhibition at 10 µM [2]: 55% | inhibition at 10 µM [3]: 0%
SMILES: Cc1nc2cnc3cc(F)c(-c4ccc(Oc5ncccn5)cc4Cl)cc3c2n1[C@H]1CCN(C(=O)CO)C[C@@H]1F [Example 1A, 1-((3S,4S)-4-(8-(2-chloro-4-(pyrimidin-2-yloxy)phenyl)-7-fluoro-2-methyl-1H-imidazo[4,5-c]quinolin-1-yl)-3-fluoropiperidin-1-yl)-2-hydroxyethanone]
